The record followed here is ChEMBL document CHEMBL2169754, “Imidazo[1,2-a]pyridines That Directly Interact with Hepatitis C NS4B: Initial Preclinical Characterization” (ACS Med Chem Lett, 2012).

The structures appear in SMILES notation. pEC50, pIC50: −log10 of the molar value.

The subject of data set [1] is Hepatitis C virus. As to the kind of experiment: Antiviral activity against wild type HCV genotype 1a infected in human HuH7 cells after 48 hrs by luciferase reporter gene assay. The settings on record: subtype 1a, Huh-7, 48 h. Format: functional, organism-based, Hepacivirus hominis.
Data set [2] relates to Hepatitis C virus. As to the kind of experiment: Antiviral activity against wild type HCV genotype 1b infected in human HuH7 cells after 48 hrs by luciferase reporter gene assay. It counts as functional, organism-based, Hepacivirus hominis. The settings on record: Huh-7, 48 h.
The test system of data set [3] is Hepatitis C virus. As to the kind of experiment: Binding affinity to HCV genotype 1b His6-tagged NS4B expressed in baculovirus infected Sf9 cells after overnight incubation. The following applies: Hepatitis C virus subtype 1b, tested as the 3H-labelled form.
A short description of data set [4]: AUC (0 to 24 hrs) in Sprague-Dawley rat at 5 mg/kg, po. It counts as ADME, organism-based. Set-up: time < 24 hr, dose 5 mg/kg, route oral. The settings on record: plasma.
Data set [5] can be described thus: Oral bioavailability in Sprague-Dawley rat at 5 mg/kg. It counts as ADME, organism-based. The settings on record: in vivo.
A short description of data set [6]: Half life in Sprague-Dawley rat at 5 mg/kg, po. It counts as ADME, organism-based. The settings on record: in vivo. On the set-up: dose 5 mg/kg, route oral.
The nature of data set [7]: Clearance in Sprague-Dawley rat at 1 mg/kg, iv. It counts as ADME, organism-based. On the set-up: dose 1 mg/kg, route intravenous. The settings on record: in vivo.
Data set [8] is described as follows: Volume of distribution at steady state in Sprague-Dawley rat at 1 mg/kg, iv. Format: ADME, organism-based. On the set-up: dose 1 mg/kg, route intravenous. The settings on record: in vivo, read-out: Vdss.
A short description of data set [9]: Solubility of the compound. It counts as physicochemical.
For another data set, the target named is Cytochrome P450 3A4 (Homo sapiens, UniProt P08684). As to the kind of experiment: Inhibition of CYP3A4 in human liver microsomes after 7 mins by LC/MS/MS analysis. It counts as ADME, Microsome.
The target in the next data set is Cytochrome P450 2D6 (Homo sapiens, UniProt P10635). As to the kind of experiment: Inhibition of CYP2D6 in human liver microsomes after 10 mins by LC/MS/MS analysis. Format: ADME, Microsome.
In a further data set the target is Cytochrome P450 2C19 (Homo sapiens, UniProt P33261). As to the kind of experiment: Inhibition of CYP2C19 in human liver microsomes after 10 mins by LC/MS/MS analysis. Format: ADME, Microsome.
The next data set deals with T1, Cytochrome P450 1A2 (Homo sapiens, UniProt P05177).
T1 sequence (P05177 whole entry): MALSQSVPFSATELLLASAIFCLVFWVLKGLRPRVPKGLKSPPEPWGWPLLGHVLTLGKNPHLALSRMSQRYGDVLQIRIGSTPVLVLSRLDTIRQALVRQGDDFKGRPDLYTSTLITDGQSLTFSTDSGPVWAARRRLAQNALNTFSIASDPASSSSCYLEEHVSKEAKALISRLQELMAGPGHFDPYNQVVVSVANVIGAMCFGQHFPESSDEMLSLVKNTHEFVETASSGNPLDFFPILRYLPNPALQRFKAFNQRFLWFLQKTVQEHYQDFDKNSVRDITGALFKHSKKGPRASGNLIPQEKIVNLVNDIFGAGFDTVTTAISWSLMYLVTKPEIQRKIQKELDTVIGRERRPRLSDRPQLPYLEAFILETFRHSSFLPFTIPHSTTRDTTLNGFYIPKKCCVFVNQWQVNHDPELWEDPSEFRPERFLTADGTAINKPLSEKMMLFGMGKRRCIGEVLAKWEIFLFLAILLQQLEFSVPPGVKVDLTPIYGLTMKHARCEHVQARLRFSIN
As to the kind of experiment: Inhibition of CYP1A2 in human liver microsomes after 10 mins by LC/MS/MS analysis. Format: ADME, Microsome.

A further data set addresses Cytochrome P450 2C9 (Homo sapiens, UniProt P11712). As to the kind of experiment: Inhibition of CYP2C9 in human liver microsomes after 10 mins by LC/MS/MS analysis. Format: ADME, Microsome.
The test system of data set [10] is Liver microsomes. As to the kind of experiment: Drug metabolism in rat liver microsomes assessed as reactive metabolite formation at 10 uM after 30 mins by glutathione trapping assay. It counts as ADME, Microsome. The settings on record: 0.5 h.
In data set [11] the test system is Liver microsomes. As to the kind of experiment: Drug metabolism in human liver microsomes assessed as reactive metabolite formation at 10 uM after 30 mins by glutathione trapping assay. Format: ADME, Microsome. The settings on record: 0.5 h.
Data set [12] relates to Hepatitis C virus. As to the kind of experiment: Displacement of [3H]-3-(1-(3-chloro-6-isopropyl-8-(trifluoromethyl)imidazo[1,2-a]pyridine-2-carbonyl)piperidin-4-yl)oxazolidin-2-one from HCV genotype 1b His6-tagged NS4B expressed in baculovirus infected Sf9 cells after overnight incubation. On the set-up: species or system Hepatitis C virus subtype 1b.
The subject of data set [13] is Hepatocyte. As to the kind of experiment: Drug metabolism in human hepatocytes assessed as pendant cyclohexyl oxidation. Format: ADME, cell-based.
The test system of data set [14] is Hepatocyte. As to the kind of experiment: Drug metabolism in rat hepatocytes assessed as pendant cyclohexyl oxidation. Format: ADME, cell-based.

Sequence of Cytochrome P450 3A4 (P08684 whole entry): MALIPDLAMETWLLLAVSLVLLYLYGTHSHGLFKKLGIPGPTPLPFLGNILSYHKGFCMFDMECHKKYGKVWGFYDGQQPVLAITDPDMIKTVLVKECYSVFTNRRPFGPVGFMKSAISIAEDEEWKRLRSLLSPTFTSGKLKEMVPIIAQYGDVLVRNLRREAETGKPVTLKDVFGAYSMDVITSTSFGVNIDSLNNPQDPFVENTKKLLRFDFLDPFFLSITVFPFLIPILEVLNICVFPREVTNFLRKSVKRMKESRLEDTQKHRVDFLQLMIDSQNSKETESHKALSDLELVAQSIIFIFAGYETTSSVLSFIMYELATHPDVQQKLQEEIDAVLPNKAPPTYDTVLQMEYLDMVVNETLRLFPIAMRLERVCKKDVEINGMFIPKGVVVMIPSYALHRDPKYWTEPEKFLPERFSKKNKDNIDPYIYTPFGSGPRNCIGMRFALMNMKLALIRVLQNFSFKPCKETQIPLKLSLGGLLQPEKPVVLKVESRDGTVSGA
Sequence of Cytochrome P450 2C19 (P33261 whole entry): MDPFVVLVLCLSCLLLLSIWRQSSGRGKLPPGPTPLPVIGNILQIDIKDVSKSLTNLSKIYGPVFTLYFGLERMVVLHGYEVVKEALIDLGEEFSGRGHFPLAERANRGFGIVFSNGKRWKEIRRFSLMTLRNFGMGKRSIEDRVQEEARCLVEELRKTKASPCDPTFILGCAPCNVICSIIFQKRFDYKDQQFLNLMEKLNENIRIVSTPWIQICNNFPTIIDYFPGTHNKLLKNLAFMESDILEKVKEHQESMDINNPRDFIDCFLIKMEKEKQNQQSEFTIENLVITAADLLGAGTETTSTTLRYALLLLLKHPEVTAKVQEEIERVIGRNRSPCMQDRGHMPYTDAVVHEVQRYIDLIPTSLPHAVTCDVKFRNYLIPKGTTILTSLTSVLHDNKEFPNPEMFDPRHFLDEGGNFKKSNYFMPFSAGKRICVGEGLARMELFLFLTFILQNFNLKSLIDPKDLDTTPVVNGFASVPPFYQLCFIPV
Sequence of Cytochrome P450 2D6 (P10635 whole entry): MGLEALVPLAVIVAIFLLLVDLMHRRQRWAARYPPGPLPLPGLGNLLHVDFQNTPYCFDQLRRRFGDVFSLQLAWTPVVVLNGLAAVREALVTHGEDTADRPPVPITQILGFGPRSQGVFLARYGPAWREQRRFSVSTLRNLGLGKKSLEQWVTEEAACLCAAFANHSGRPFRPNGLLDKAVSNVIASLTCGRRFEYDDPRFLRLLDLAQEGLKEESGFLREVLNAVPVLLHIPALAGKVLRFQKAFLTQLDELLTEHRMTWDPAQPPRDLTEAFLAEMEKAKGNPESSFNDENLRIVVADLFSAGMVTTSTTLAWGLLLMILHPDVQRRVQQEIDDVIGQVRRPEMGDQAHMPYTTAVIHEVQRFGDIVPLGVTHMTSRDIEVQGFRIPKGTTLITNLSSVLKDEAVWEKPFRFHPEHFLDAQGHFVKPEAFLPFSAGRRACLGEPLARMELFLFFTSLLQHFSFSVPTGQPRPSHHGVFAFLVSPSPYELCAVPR
Sequence of Cytochrome P450 2C9 (P11712 whole entry): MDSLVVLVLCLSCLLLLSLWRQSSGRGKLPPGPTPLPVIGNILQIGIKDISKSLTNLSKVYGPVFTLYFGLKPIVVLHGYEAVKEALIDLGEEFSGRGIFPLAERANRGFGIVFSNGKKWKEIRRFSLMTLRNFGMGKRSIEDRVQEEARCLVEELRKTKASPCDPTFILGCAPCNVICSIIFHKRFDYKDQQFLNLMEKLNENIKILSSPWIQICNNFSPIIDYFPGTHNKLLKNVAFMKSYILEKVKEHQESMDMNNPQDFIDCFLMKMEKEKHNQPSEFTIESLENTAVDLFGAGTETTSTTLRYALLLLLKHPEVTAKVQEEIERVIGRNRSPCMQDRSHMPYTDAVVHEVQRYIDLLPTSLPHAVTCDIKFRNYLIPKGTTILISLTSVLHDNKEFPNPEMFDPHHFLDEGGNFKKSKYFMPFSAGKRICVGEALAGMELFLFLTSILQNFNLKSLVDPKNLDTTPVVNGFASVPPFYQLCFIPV

Take `O=C(c1nc2c(C(F)(F)F)cc(-c3cn[nH]c3)cn2c1Br)N1CCC(c2cccs2)C1` (centres undefined): the pEC50 with Hepatitis C virus [1] and in the data set on Hepatitis C virus [2] was greater than 7.26 in each case. The Kapp in the data set on Hepatitis C virus [3] amounted to 76 nM.
On to `O=C(c1nc2c(C(F)(F)F)cc(-c3ccoc3)cn2c1Cl)N1CCC(N2CCOC2=O)CC1`, for which the AUC(0-t) at 24 h in data set [4] was found to be 700 ng·h/mL. The bioavailability in data set [5] is 60%. The compound also gave a half-life in data set [6] of 1.9 h. The same compound returned a clearance in data set [7] of 72 mL/min/kg. In [8], the Vd was 2.5 L/kg. This compound came in with a solubility in data set [9] greater than 500 µM. Also, the “inhibition (INH)” value on Cytochrome P450 3A4, at Cytochrome P450 2D6, against Cytochrome P450 2C19, at Cytochrome P450 1A2 and against Cytochrome P450 2C9 was “Not Active” each time. Also, the Drug metabolism entry in the data set with Liver microsomes [10] and with Liver microsomes [11] was “Not Active” throughout. Besides, the pEC50 in the data set on Hepatitis C virus [1] is 8.13; in the data set with Hepatitis C virus [2] it was 7.74. In addition, the negative logarithm of the IC50 (pIC50) in the data set with Hepatitis C virus [12] is 6.82.
As for `O=C(c1nc2c(C(F)(F)F)cc(-c3ccoc3)cn2c1Cl)N1CCN(C2CCCCC2)C(=O)C1`, the Drug metabolism entry with Hepatocyte [13] and with Hepatocyte [14] was “Active” in each case. The solubility in data set [9] was greater than 500 µM. Further, the negative-log EC50 (pEC50) in the data set with Hepatitis C virus [1] was 7.96; in the data set on Hepatitis C virus [2], 8.46. The compound further gave a negative-log IC50 (pIC50) with Hepatitis C virus [12] of 8.25.
As for `O=C(c1nc2c(C(F)(F)F)cc(-c3ccoc3)cn2c1Cl)N1CCN(c2ccccc2)CC1`, the pEC50 in the data set on Hepatitis C virus [1] was 6.35; in the data set on Hepatitis C virus [2] it was 5.80. In the data set with Hepatitis C virus [12], this compound had a pIC50 of 7.70.
`CC(C)c1cc(C(F)(F)F)c2nc(C(=O)N3CCC(N4CCOC4=O)CC3)c(Cl)n2c1`: the pEC50 with Hepatitis C virus [1] and in the data set with Hepatitis C virus [2] was greater than 7.26 in each case. The compound also yielded a Kapp in the data set with Hepatitis C virus [3] of 30 nM.
For the compound `O=C(c1nc2c(C(F)(F)F)cc(-c3ccoc3)cn2c1Cl)N1CCC(c2ccncc2)C1` (racemic), the values for the pEC50 in the data set on Hepatitis C virus [1] and in the data set with Hepatitis C virus [2] were 6.42 and 6.57, respectively. In addition, the pIC50 in the data set on Hepatitis C virus [12] was 7.60.
Compound `O=C(c1nc2c(C(F)(F)F)cc(-c3ccoc3)cn2c1Cl)N1CCC(c2cccs2)C1` (racemic) came in with a solubility in data set [9] of less than 15 µM. In addition, the pEC50 with Hepatitis C virus [1] is 6.11; in the data set with Hepatitis C virus [2], 7.17. In the data set with Hepatitis C virus [12], this compound showed a pIC50 of 7.92.
For `O=C(c1nc2c(C(F)(F)F)cc(-c3ccoc3)cn2c1Cl)N1CCC(N2CCCC2=O)CC1` the same measures were greater than 500 µM, 6.59, 7.05 and 6.77.
For `CC1(C)CN(C2CCN(C(=O)c3nc4c(C(F)(F)F)cc(-c5ccoc5)cn4c3Cl)CC2)C(=O)O1` the same measures were greater than 500 µM, 5.00, 4.12 and 6.66.
Consider `O=C(c1nc2c(C(F)(F)F)cc(-c3ccoc3)cn2c1Cl)N1CCN([C@H]2CC[C@H](O)CC2)C(=O)C1`, for which the solubility in [9] was greater than 500 µM. Further, the pEC50 in the data set with Hepatitis C virus [1] is 9.05; with Hepatitis C virus [2], 8.01. In the data set with Hepatitis C virus [12], this compound gave a pIC50 of 7.37.
For `O=C(c1nc2c(C(F)(F)F)cc(-c3ccoc3)cn2c1Cl)N1CCC(c2ccccc2F)C1` (racemic) the same measures were less than 15 µM, 6.17, 7.11 and 8.27.
